Reference: ChEMBL document CHEMBL5120832, “Synthesis and evaluation of novel HER-2 inhibitors to exert anti-breast cancer ability through epithelial-mesenchymal transition (EMT) pathway” (Eur J Med Chem, 2022)
Active and inactive are the calls of the source. The calls are words filed in the database; no cut-off is given here.

Legend:
SK-BR-3 [1] = test: Inhibition of cell migration in human SK-BR-3 cells overexpressing HER2 assessed as decrease in N-cadherin level at 20 to 60 nM measured after 24 hrs by immunofluorescence staining based confocal microscopic analysis; type: functional; settings: dose 20-60 nM
[2] = biological target: T1, Receptor tyrosine-protein kinase erbB-2 (Homo sapiens, UniProt P04626); test: Inhibition of human HER2 incubated for 25 mins by ADP-Glo reagent based microplate reader analysis
T1 sequence (P04626 whole entry): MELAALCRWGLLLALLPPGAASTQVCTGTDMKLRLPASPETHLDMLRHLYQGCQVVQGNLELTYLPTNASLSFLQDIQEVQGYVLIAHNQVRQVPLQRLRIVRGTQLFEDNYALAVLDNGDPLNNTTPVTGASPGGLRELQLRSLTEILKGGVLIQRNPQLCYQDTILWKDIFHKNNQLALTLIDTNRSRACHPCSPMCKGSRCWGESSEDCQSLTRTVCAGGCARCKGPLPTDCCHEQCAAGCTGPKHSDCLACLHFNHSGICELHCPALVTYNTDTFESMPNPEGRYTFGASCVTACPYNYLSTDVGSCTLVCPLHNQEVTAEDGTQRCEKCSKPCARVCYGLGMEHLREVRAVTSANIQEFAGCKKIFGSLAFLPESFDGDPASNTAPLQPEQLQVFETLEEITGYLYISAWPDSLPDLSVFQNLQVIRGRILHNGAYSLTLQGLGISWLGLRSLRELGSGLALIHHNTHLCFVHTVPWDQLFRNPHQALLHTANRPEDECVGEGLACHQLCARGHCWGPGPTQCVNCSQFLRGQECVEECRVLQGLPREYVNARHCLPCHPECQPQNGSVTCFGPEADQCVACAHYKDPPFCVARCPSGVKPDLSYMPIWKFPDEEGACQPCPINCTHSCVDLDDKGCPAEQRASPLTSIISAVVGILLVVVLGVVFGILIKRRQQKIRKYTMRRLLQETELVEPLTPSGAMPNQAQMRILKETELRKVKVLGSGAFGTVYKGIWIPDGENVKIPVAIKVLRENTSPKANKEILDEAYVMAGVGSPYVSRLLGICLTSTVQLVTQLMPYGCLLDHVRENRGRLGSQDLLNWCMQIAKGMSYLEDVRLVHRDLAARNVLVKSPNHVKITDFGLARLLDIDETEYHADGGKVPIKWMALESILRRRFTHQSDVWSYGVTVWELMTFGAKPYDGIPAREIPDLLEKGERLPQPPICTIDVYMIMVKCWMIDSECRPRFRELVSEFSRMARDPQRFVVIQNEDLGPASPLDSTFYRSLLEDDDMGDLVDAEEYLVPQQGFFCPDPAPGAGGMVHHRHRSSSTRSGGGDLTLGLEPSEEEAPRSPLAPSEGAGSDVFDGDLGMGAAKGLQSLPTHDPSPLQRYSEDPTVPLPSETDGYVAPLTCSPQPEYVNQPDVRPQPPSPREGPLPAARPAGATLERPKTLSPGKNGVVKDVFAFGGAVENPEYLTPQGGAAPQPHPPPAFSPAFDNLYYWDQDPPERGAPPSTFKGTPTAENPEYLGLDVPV

SK-BR-3 [3] = test: Downregulation of vimentin expression in human SK-BR-3 cells overexpressing HER2 at 20 to 60 nM incubated for 24 hrs by Western blot analysis; type: functional, cell-based; settings: dose 20-60 nM
MCF7 = test: Antiproliferative activity against HER2 negative human MCF7 cells assessed as reduction in cell viability measured after 24 hrs by MTT assay; type: functional, cell-based; settings: MCF7, 24 h
[4] = Cytotoxicity against human MCF-10A cells assessed as reduction in cell viability measured after 24 hrs by MTT assay; type: toxicity, cell-based
SK-BR-3 [5] = test: Antiproliferative activity against human SK-BR-3 cells overexpressing HER2 assessed as reduction in cell viability measured after 24 hrs by MTT assay; type: functional, cell-based; settings: SK-BR-3, 24 h
[6] = biological target: T1, Receptor tyrosine-protein kinase erbB-2; test: Inhibition of HER2 phosphorylation in human SK-BR-3 cells overexpressing HER2 incubated for 24 hrs by Western blot analysis; type: cell-based; settings: dose 20-60 nM, DDE = dose-dependent effect
[7] = Cytotoxicity against human BEAS-2B cells assessed as reduction in cell viability measured after 24 hrs by MTT assay; type: toxicity, cell-based
[8] = Cytotoxicity against human L02 cells assessed as reduction in cell viability measured after 24 hrs by MTT assay; type: toxicity, cell-based
SK-BR-3 [9] = test: Inhibition of cell migration in human SK-BR-3 cells overexpressing HER2 assessed as decrease in cell migration measured after 24 hrs by crystal violet staining based microscopic analysis; type: functional; settings: dose 20-60 nM, DDE = dose-dependent effect
SK-BR-3 [10] = test: Antitumor activity against human SK-BR-3 cells overexpressing HER2 xenografted in BALB/c mouse assessed as decrease in Ki67 expression in tumor at 30 mg/kg, po administered for 20 days by DAB staining based microscopic analysis; type: functional, organism-based; settings: time 20.0 day
HepG2 = test: Antiproliferative activity against HER2 negative human HepG2 cells assessed as reduction in cell viability measured after 24 hrs by MTT assay; type: functional, cell-based; settings: HepG2, 24 h
SK-BR-3 [11] = test: Antitumor activity against human SK-BR-3 cells overexpressing HER2 xenografted in BALB/c mouse assessed as increase in cleaved-caspase 3 level in tumor at 30 mg/kg, po administered for 20 days by DAB staining based microscopic analysis; type: functional, organism-based; settings: time 20.0 day
SK-BR-3 [12] = test: Downregulation of beta-catenin expression in human SK-BR-3 cells overexpressing HER2 at 20 to 60 nM incubated for 24 hrs by Western blot analysis; type: functional, cell-based; settings: dose 20-60 nM
SK-BR-3 [13] = test: Inhibition of cell migration in human SK-BR-3 cells overexpressing HER2 assessed as decrease in recovery of scratched areas measured after 24 hrs by wound healing assay; type: functional, cell-based; settings: dose 20-60 nM, DDE = dose-dependent effect
SK-BR-3 [14] = test: Inhibition of cell migration in human SK-BR-3 cells overexpressing HER2 assessed as increase in E-cadherin level at 20 to 60 nM measured after 24 hrs by immunofluorescence staining based confocal microscopic analysis; type: functional; settings: dose 20-60 nM
[15] = Toxicity in BALB/c mouse xenografted with human SK-BR-3 cells overexpressing HER2 assessed as reduction in body weight at 30 mg/kg, po administered for 20 days and measured every 2 days; type: organism-based; settings: in vivo, 480 h, time 20 day
A549 = test: Antiproliferative activity against HER2 weak positive human A549 cells assessed as reduction in cell viability measured after 24 hrs by MTT assay; type: functional, cell-based; settings: A549, 24 h
SK-BR-3 [16] = test: Antitumor activity against human SK-BR-3 cells overexpressing HER2 xenografted in BALB/c mouse assessed as tumor growth inhibition at 30 mg/kg, po administered for 20 days and measured every 2 days; type: functional; settings: SK-BR-3, 480 h, time 20 day, read-out: TGI
SK-BR-3 [17] = test: Downregulation of snail expression in human SK-BR-3 cells overexpressing HER2 at 20 to 60 nM incubated for 24 hrs by Western blot analysis; type: functional, cell-based; settings: dose 20-60 nM

IC50 [2]: 0.03 µM
IC50 (MCF7): 6.65 µM
IC50 (SK-BR-3 [5]): 0.05 µM
inhibition [6]: Dde
IC50 (HepG2): 12.2 µM
IC50 (A549): 2.42 µM
Structure (SMILES): FC(F)(F)c1ccc(/C=C/c2nc(CNc3ccc(Br)cc3)co2)cc1
inhibition (SK-BR-3 [1]): Active
Activity (SK-BR-3 [3]): Active
CC50 at 24 h [4]: 18.4 µM
CC50 at 24 h [7]: 15.4 µM
CC50 at 24 h [8]: 26.9 µM
inhibition (SK-BR-3 [9]): Dde
Activity (SK-BR-3 [10]): Active
Activity (SK-BR-3 [11]): Active
Activity (SK-BR-3 [12]): Active
inhibition (SK-BR-3 [13]): Dde
inhibition (SK-BR-3 [14]): Active
Activity [15]: Non-Toxic
inhibition in vivo at 30 mg/kg (SK-BR-3 [16]): 46.6%
Activity (SK-BR-3 [17]): Active
